The numbers were not newly measured in patent publication US11324772B2, “Periodontal gel composition and method of use” (PRUDENTIX LTD., priority 2017, dated 2022), which cites them from elsewhere.

Structures are written as SMILES.

For `CCCCCCCCN=c1ccn(CCCCCCCCCCn2ccc(=NCCCCCCCC)cc2)cc1` [octenidine, 1,1′,4,4′-tetrahydro-N,N′-dioctyl-1,1′-decametylenedi-(4-pyridylideneamine)], the “pH range in which octenidine is stable and maintains its antimicrobial activity” value (pH) was 1.6-12.2. The “temperature up to which it can be sterilized by steam in aqueous solutions” value (steam, aqueous solutions) is “up to 130 °C”.
